Results reported in US6730665B1, “Treatment of bone cancer” (Mayo Foundation for Medical Education and Research, priority 1999, dated 2004).

Assays:
[1] = system: osteosarcoma cells and immortalized cell lines; experiment: Cell survival, summary statement; type: cell-based; conditions: for impact on cell survival (in words): 2 μM, 72 hours; for reduction of cell survival: 20 μM
Description: (§1) MG63 and TE85 human osteosarcoma cells, and ROS 17/2.8 rat osteosarcoma cells were grown in DMEM/F12 phenol-red free medium containing 10% charcoal-stripped fetal bovine serum (FBS) and supplemented with 100 units/ml penicillin, 100 μg/ml streptomycin. Cell were incubated at 37° C. under 5% CO2 in air. Cells were plated at 5×10^4 cells per well into 24 well plates containing 1 ml of medium per well. After allowing the cells to attach overnight, media in the wells were replaced with fresh 1 ml medium. Human fetal osteoblasts (hFOB) cells and hFOB cells overexpressing estrogen receptor-alpha (hFOB-ERα) and estrogen receptor-beta (hFOB-ERβ) were grown in DMEM/F12 medium containing FBS, penicillin, streptomycin and Geneticin (300 μg/mL). The laboratory of Dr. B. L. Riggs at Mayo Clinic provided primary human osteoblast (HOB) cells. HOB cells were basically established from cancellous bone obtained as waste from orthopedic procedures and cultured as explants to generate the osteoblast-like monolayers as described by Borke et al., J. Clin. Endocrinol. Metab., 1988, 67:1299-1304. Human FOB cells and hFOB cells stably transfected with estrogen receptors (ERs) were maintained at 34° C., while all other cells were incubated at 37° C. under 5% CO2 in air.
(§2) Estrogen metabolites were diluted 1000 fold to give the final required concentrations in each well, and maintained for 72 hrs. The metabolites 2ME, 2OHE, and E2 were purchased from Sigma Chemical Company (St. Louis, Mo.). Stock solutions for each metabolite were made in 95% ethanol. Cell growth was measured by taking the viable cell count. At the end of metabolite treatment, cells were harvested, stained with trypan blue, and counted under a light microscope.

[2] = system: MG63 human osteosarcoma cells; experiment: Cell survival, viable cell count with trypan blue; type: cell-based; conditions: for cell survival: 20 and 50 μM
Description: as §1, §2
MG63 cells were treated with 0, 2, and 10 μM concentrations of 2ME in the presence or absence of 100 nM ICI for 72 hours. The cells were harvested and the viable cell counts were taken after staining with trypan blue.

Row | Structure (SMILES) | impact on cell survival (in words) [1] | reduction of cell survival [1] | impact on cell survival (in words) ([2]; 2 μM, 72 hrs) | cell survival ([2]; 72 hrs) | impact on cell survival (in words) ([2]; 100 nM ICI alone, 72 hours)
1 | C[C@]12CC[C@@H]3c4ccc(O)cc4CC[C@H]3[C@@H]1CC[C@@H]2O [E2, 17β-estradiol] | minimal impact | 50% | little impact | ~50% | –
2 | C[C@]12CC[C@@H]3c4ccc(O)cc4C[C@@H](CCCCCCCCC[S+]([O-])CCCC(F)(F)C(F)(F)F)[C@H]3[C@@H]1CC[C@@H]2O (stereo partly shown) [ICI] | – | – | – | – | little impact
3 | C[C@]12CC[C@@H]3c4cc(O)c(O)cc4CC[C@H]3[C@@H]1CC[C@@H]2O [2OHE, 2-hydroxyestradiol] | minimal impact | 60% | little impact | about 40% | –
4 | COc1cc2c(cc1O)CC[C@@H]1[C@@H]2CC[C@]2(C)C(=O)CC[C@@H]12 [2-methoxyestrone] | minimal impact | – | – | – | –
